IC50 and ED50 data for one compound are collected here from patent US5281613A, “Heterocyclic compounds” (Imperial Chemical Industries PLC, priority 1991, dated 1994).

Experiment [1] deals with T1, AII receptors (guinea pig adrenal gland cell surface membrane fraction) (Cavia porcellus, UniProt Q9WV26).
T1 construct: from tissue; host or cells: guinea pig adrenal gland, cell surface membrane fraction
T1 sequence (Q9WV26 1-359): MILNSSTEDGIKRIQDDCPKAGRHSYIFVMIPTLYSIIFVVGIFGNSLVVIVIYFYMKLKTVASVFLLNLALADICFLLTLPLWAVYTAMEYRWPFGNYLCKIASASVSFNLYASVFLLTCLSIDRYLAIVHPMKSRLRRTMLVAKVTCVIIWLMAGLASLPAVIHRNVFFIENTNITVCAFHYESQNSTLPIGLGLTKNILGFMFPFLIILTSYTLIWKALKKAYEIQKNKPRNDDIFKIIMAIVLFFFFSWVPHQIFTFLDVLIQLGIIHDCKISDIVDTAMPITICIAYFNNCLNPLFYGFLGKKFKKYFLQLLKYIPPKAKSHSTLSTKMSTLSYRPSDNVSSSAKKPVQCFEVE
In words: Test A: in vitro displacement of radiolabelled AII binding to guinea pig adrenal gland cell surface membranes. The conditions noted are these: read-out: IC50 (concentration for 50% displacement of radiolabelled AII binding). As for the experimental part:
The antagonism of one or more of the physiological actions of AII and, in particular, the antagonism of the interaction of AII with the receptors which mediate its effects on a target tissue, may be assessed using one or more of the following, routine laboratory procedures:
This in vitro procedure involves the incubation of the test compound initially at a concentration of 100 micromolar (or less) in a buffered mixture containing fixed concentrations of radiolabelled AII and a cell surface membrane fraction prepared from a suitable angiotensin target tissue. In this test, the source of cell surface membranes is the guinea pig adrenal gland which is well known to respond to AII. Interaction of the radiolabelled AII with its receptors (assessed as radiolabel bound to the particlate membrane fraction following removal of unbound radiolabel by a rapid filtration procedure such as is standard in such studies) is antagonized by compounds which also bind to the membrane receptor sites and the degree of antagonism (observed in the test as displacement of membrane-bound radioactivity) is determined readily by comparing the receptor-bound radioactivity in the presence of the test compound at the specified test concentration with a control value determined in the absence of the test compound. […]

Experiment [2] concerns angiotensin II-induced pressor responses. Kind of experiment: Test C: antagonism of angiotensin II-induced pressor responses in rats. The format is in vivo. The conditions noted are these: iv, rat, i.v. administration. An excerpt:
The antagonism of one or more of the physiological actions of AII and, in particular, the antagonism of the interaction of AII with the receptors which mediate its effects on a target tissue, may be assessed using one or more of the following, routine laboratory procedures: Test C This in vivo test involves using terminally-anaesthetised or conscious rats in which an arterial catheter has been implanted under anaesthesia for the measurement of changes in blood pressure. The AII antagonistic effects of the test compound following oral or parenteral administration, are assessed against angiotensin II-induced pressor responses. To ensure that the effect is specific, the effect of the test compound on vasopressin-induced pressor responses may also be determined in the same preparation.

The term ED50 denotes the dose at which the effect has come halfway, by size or by number of responders. Low values mean an effect at a small dose, high ones a need for a large dose. With `CCc1cc(OCc2ccc3oc(-c4ccccc4-c4nnn[nH]4)c(Br)c3c2)c2c(n1)CCCC2.Cl` [Example 8, 4-[(3-bromo-2-(2-(1H-tetrazol-5-yl)phenyl)benzofuran-5-yl)methoxy]-2-ethyl-5,6,7,8-tetrahydroquinoline hydrochloride], the IC50 in experiment [1] amounted to 30 nM. The compound further came in with an ED50 in experiment [2] of 8.2 mg/kg.
